Measured values: PubChem BioAssay AID1963842 (Molecular Pharmacology Branch, DTP, NCI, 2024)

Test system: 677734-321-R-J1-PDC complex spheroid viability
Test: Anticancer human tumor 677734-321-R-J1-PDC patient-derived soft tissue sarcoma cell line growth inhibition [POLQ]
Conditions: for IC50: curve of first compound; for viability, T/C: stronger effect = lower value
Procedure, shortened: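 Three-cell-type spheroids modelling solid tumor plus stroma served as the readout system; POL inhibitors were tested individually and in combination, concentration ranges set by clinical Cmax where known.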
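Further: spheroids exposed to compounds for one week.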
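Wherever viability, T/C is given: 100% = vehicle DMSO treated spheroids.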

SMILES: CCCS(=O)(=O)Nc1ccc(F)c(C(=O)c2c[nH]c3ncc(-c4ccc(Cl)cc4)cc23)c1F + Nc1ccc(C#CCN(C(=O)Cc2ncc(C(F)(F)F)cc2C(F)(F)F)c2ccc(F)cc2)nn1
- IC50 (second compound 0.0316 µM): 5.07 µM
- IC50 (second compound 0.1 µM): 5.35 µM
- IC50 (second compound 0.316 µM): 5.46 µM
- IC50 (second compound 1 µM): 4.5 µM
- IC50 (second compound 3.16 µM): 4.29 µM
- IC50 (second compound 10 µM): 4.7 µM
- viability, T/C (second compound 0.0316 µM, first compound 0.0316 µM): 96.6%
- viability, T/C (second compound 0.0316 µM, first compound 0.1 µM): 106%
- viability, T/C (second compound 0.0316 µM, first compound 0.316 µM): 97.2%
- viability, T/C (second compound 0.0316 µM, first compound 1 µM): 104%
- viability, T/C (second compound 0.0316 µM, first compound 3.16 µM): 80%
- viability, T/C (second compound 0.0316 µM, first compound 10 µM): 7%
- viability, T/C (second compound 0.1 µM, first compound 0.0316 µM): 107%
- viability, T/C (second compound 0.1 µM, first compound 0.1 µM): 109%
- viability, T/C (second compound 0.1 µM, first compound 0.316 µM): 87.5%
- viability, T/C (second compound 0.1 µM, first compound 1 µM): 98.9%
- viability, T/C (second compound 0.1 µM, first compound 3.16 µM): 86.8%
- viability, T/C (second compound 0.1 µM, first compound 10 µM): 6.32%
- viability, T/C (second compound 0.316 µM, first compound 0.0316 µM): 99%
- viability, T/C (second compound 0.316 µM, first compound 0.1 µM): 101%
- viability, T/C (second compound 0.316 µM, first compound 0.316 µM): 102%
- viability, T/C (second compound 0.316 µM, first compound 1 µM): 108%
- viability, T/C (second compound 0.316 µM, first compound 3.16 µM): 87.9%
- viability, T/C (second compound 0.316 µM, first compound 10 µM): 7.94%
- viability, T/C (second compound 1 µM, first compound 0.0316 µM): 107%
- viability, T/C (second compound 1 µM, first compound 0.1 µM): 103%
- viability, T/C (second compound 1 µM, first compound 0.316 µM): 107%
- viability, T/C (second compound 1 µM, first compound 1 µM): 98.6%
- viability, T/C (second compound 1 µM, first compound 3.16 µM): 68%
- viability, T/C (second compound 1 µM, first compound 10 µM): 9.46%
- viability, T/C (second compound 3.16 µM, first compound 0.0316 µM): 121%
- viability, T/C (second compound 3.16 µM, first compound 0.1 µM): 110%
- viability, T/C (second compound 3.16 µM, first compound 0.316 µM): 102%
- viability, T/C (second compound 3.16 µM, first compound 1 µM): 96.6%
- viability, T/C (second compound 3.16 µM, first compound 3.16 µM): 67.2%
- viability, T/C (second compound 3.16 µM, first compound 10 µM): 5.17%
- viability, T/C (second compound 10 µM, first compound 0.0316 µM): 96.8%
- viability, T/C (second compound 10 µM, first compound 0.1 µM): 105%
- viability, T/C (second compound 10 µM, first compound 0.316 µM): 96.1%
- viability, T/C (second compound 10 µM, first compound 1 µM): 113%
- viability, T/C (second compound 10 µM, first compound 3.16 µM): 73.2%
- viability, T/C (second compound 10 µM, first compound 10 µM): 5.45%
